Measurements published in US20110190267A1, “PRODRUGS OF OPIOIDS AND USES THEREOF” (priority 2010, published 2011).
Several values for one entry are separate records, joined by “and”; a condition that tells them apart may be missing. Identical values can stand only once. Marks after values point to notes of the source that are not given here.

Legend:
[1] = Pharmacokinetics of nalbuphine or nalbuphine PABA carbamate, rats (Example 42); type: in vivo, Wistar rats; settings: for half-life: read-out: t½ (converted)
Protocol: Test substances (nalbuphine at 3 mg nalbuphine free base equivalents/kg or nalbuphine para amino benzoic acid carbamate at 3 mg nalbuphine free base equivalents/kg) were administered by oral gavage to groups of male Wistar rats in a parallel group study design.
Blood samples were taken at various times after administration and submitted to analysis for the parent drug and pro-drug using a validated LC-MS-MS assay. Pharmacokinetic parameters derived from the plasma analytical data were determined using Win Nonlin.

[2] = Pharmacokinetics of levorphanol or levorphanol PABA carbamate, monkeys (Example 45); type: in vivo; settings: levorphanol in plasma after oral levorphanol, 5 mg free base equivalent/kg; for half-life: read-out: t½ (converted)
Protocol: (§1) Blood samples were taken at various times after administration, and submitted to analysis for the parent drug and prodrug using a validated LC-MS-MS assay. Pharmacokinetic parameters derived from the plasma analytical data were determined using Win Nonlin.

[3] = Pharmacokinetics of levorphanol or levorphanol PABA carbamate, dogs (Example 46); type: in vivo, Beagle dogs; settings: for AUC / Cmax / Tmax / half-life / T>50%Cmax: levorphanol in plasma after oral levorphanol, 5 mg free base equivalents/kg, female beagle dog; for AUC: AUClast; for half-life / T>50%Cmax: maximum of 30% extrapolation allowed; for half-life: read-out: t½ (converted)
Protocol: as §1

[4] = Pharmacokinetics of dextrorphan or dextrorphan PABA carbamate, monkeys (Example 47); type: in vivo, cynomolgus monkeys; settings: for half-life: read-out: t½ (converted)
Protocol: as §1

[5] = Pharmacokinetics of dextrorphan or dextrorphan PABA carbamate, dogs (Example 48); type: in vivo, beagle dogs
Protocol: Data were normalized to 1 mg/kg

[6] = nalbuphine in plasma after oral nalbuphine, 3 mg free base equivalents/kg, male rats, single animal
[7] = male cynomolgus monkeys, single animal
[8] = male, cynomolgus monkey, plasma, po, 5 mg levorphanol free base equivalents/kg, Mean
[9] = male, cynomolgus monkey, plasma, po, 5 mg levorphanol free base equivalents/kg, single animal
[10] = nalbuphine PABA carbamate in plasma after oral p-aminobenzoic acid carbamate prodrug, 3 mg nalbuphine equivs/kg, male rats, single animal
[11] = dextrorphan in plasma after oral dextrorphan, 5 mg free base equivalents/kg, male cynomolgus monkeys, single animal
[12] = dextrorphan in plasma after oral dextrorphan, 5 mg free base equivalents/kg, female dogs, single animal

`Oc1ccc2c3c1O[C@H]1[C@@H](O)CC[C@@]4(O)[C@@H](C2)N(CC2CCC2)CC[C@]314` [nalbuphine] showed an AUC ([1]; male, Wistar, rat, plasma, po, 3 mg nalbuphine free base equivalents/kg, nalbuphine in plasma after oral nalbuphine, 3 mg free base equivalents/kg, Mean, read-out: AUC) of 1.2 ng·h/mL, a Cmax ([1]; male, Wistar, rat, plasma, po, 3 mg nalbuphine free base equivalents/kg, nalbuphine in plasma after oral nalbuphine, 3 mg free base equivalents/kg, Mean, read-out: Cmax) of 1 ng/mL and a Tmax ([1]; male, Wistar, rat, plasma, po, 3 mg nalbuphine free base equivalents/kg, nalbuphine in plasma after oral nalbuphine, 3 mg free base equivalents/kg, Mean, read-out: Tmax) of 0.8 h. For the same molecule, the half-life ([1]; male, Wistar, rat, plasma, po, 3 mg nalbuphine free base equivalents/kg, nalbuphine in plasma after oral nalbuphine, 3 mg free base equivalents/kg, Mean) was 1.4 h, the Cmax ([1]; male, Wistar, rat, plasma, po, 3 mg nalbuphine free base equivalents/kg, nalbuphine in plasma after oral nalbuphine, 3 mg free base equivalents/kg, single animal, read-out: Cmax) was 1.4 ng/mL and the Tmax ([1]; male, Wistar, rat, plasma, po, 3 mg nalbuphine free base equivalents/kg, nalbuphine in plasma after oral nalbuphine, 3 mg free base equivalents/kg, single animal, read-out: Tmax) was 0.5 h. For the same molecule, the half-life ([1]; male, Wistar, rat, plasma, po, 3 mg nalbuphine free base equivalents/kg, nalbuphine in plasma after oral nalbuphine, 3 mg free base equivalents/kg, single animal) was 1.2 h, the “T>50%Cmax” value ([1]; nalbuphine in plasma after oral nalbuphine, 3 mg free base equivalents/kg, male rats, Mean) was 1.3 h and the AUC [1, 6] was 1.8 ng·h/mL and 0.4 ng·h/mL and 1.3 ng·h/mL. The Cmax [1, 6] was 0.7 ng/mL and 0.8 ng/mL, the “T>50%Cmax” value [1, 6] was 1.5 h and 0.7 h and 1.8 h and the Tmax [1, 6] was 1.0 h. The t½ [1, 6] was 1.6 h.

In the case of `CN1CC[C@]23CCCC[C@H]2[C@H]1Cc1ccc(O)cc13` [levorphanol], the AUC [2, 7] is reported as 28 ng·h/mL and 34 ng·h/mL and 27 ng·h/mL, the Cmax [2, 7] is reported as 6.6 ng/mL and 8.2 ng/mL and 7.6 ng/mL and the t½ [2, 7] is reported as 2.1 h and 1.6 h. The Tmax [2, 8] was 1.5 h, the AUC ([2]; male, cynomolgus monkey, plasma, po, 5 mg levorphanol free base equivalents/kg, Mean, read-out: AUC) was 28 ng·h/mL and the Cmax ([2]; male, cynomolgus monkey, plasma, po, 5 mg levorphanol free base equivalents/kg, Mean, read-out: Cmax) was 7.1 ng/mL. The half-life [2, 8] was 1.7 h, the Tmax [2, 9] was 2 h and the AUC ([2]; male, cynomolgus monkey, plasma, po, 5 mg levorphanol free base equivalents/kg, single animal, read-out: AUC) was 22 ng·h/mL. The Cmax ([2]; male, cynomolgus monkey, plasma, po, 5 mg levorphanol free base equivalents/kg, single animal, read-out: Cmax) was 6.2 ng/mL, the half-life [2, 9] was 1.5 h and the “T>50%Cmax of levorphanol” value ([3]; dogs, oral 5 mg levorphanol free base equivalents/kg) was 1.4 h. The AUC ([3]; female, beagle, dog, plasma, po, 5 mg levorphanol free base equivalents/kg, Mean, read-out: AUC) was 10 ng·h/mL, the Cmax ([3]; female, beagle, dog, plasma, po, 5 mg levorphanol free base equivalents/kg, Mean, read-out: Cmax) was 3.8 ng/mL and the Tmax ([3]; female, beagle, dog, plasma, po, 5 mg levorphanol free base equivalents/kg, Mean, read-out: Tmax) was 0.6 h. For the same molecule, the half-life ([3]; female, beagle, dog, plasma, po, 5 mg levorphanol free base equivalents/kg, Mean) was 1.2 h, the half-life ([3]; female, beagle, dog, plasma, po, 5 mg levorphanol free base equivalents/kg, single animal) was 0.8 h and the Tmax ([3]; female, beagle, dog, plasma, po, 5 mg levorphanol free base equivalents/kg, single animal, read-out: Tmax) was 1 h. For the same molecule, the AUC ([3]; single animal) was 5.8 ng·h/mL and 19 ng·h/mL and 16 ng·h/mL and 6.6 ng·h/mL and 2.8 ng·h/mL, the “T>50%Cmax” value ([3]; Mean) was 1.4 h and the “T>50%Cmax” value ([3]; single animal) was 1.5 h and 1.3 h. The Cmax ([3]; single animal) was 4.2 ng/mL and 3.2 ng/mL and 5.3 ng/mL and 4.3 ng/mL and 1.9 ng/mL and the Tmax ([3]; single animal) was 0.5 h.

Molecule `O=C(Nc1ccc(C(=O)O)cc1)Oc1ccc2c3c1O[C@H]1[C@@H](O)CC[C@@]4(O)[C@@H](C2)N(CC2CCC2)CC[C@]314` [nalbuphine PABA carbamate, nalbuphine para amino benzoic acid carbamate] has an AUC ([1]; male, Wistar, rat, plasma, po, 3 mg nalbuphine free base equivalents/kg, nalbuphine PABA carbamate in plasma after oral p-aminobenzoic acid carbamate prodrug, 3 mg nalbuphine equivs/kg, Mean, read-out: AUC) of 11 ng·h/mL, a Cmax ([1]; male, Wistar, rat, plasma, po, 3 mg nalbuphine free base equivalents/kg, nalbuphine PABA carbamate in plasma after oral p-aminobenzoic acid carbamate prodrug, 3 mg nalbuphine equivs/kg, Mean, read-out: Cmax) of 12 ng/mL and a Tmax ([1]; male, Wistar, rat, plasma, po, 3 mg nalbuphine free base equivalents/kg, nalbuphine PABA carbamate in plasma after oral p-aminobenzoic acid carbamate prodrug, 3 mg nalbuphine equivs/kg, Mean, read-out: Tmax) of 0.25 h. For the same molecule, the half-life ([1]; male, Wistar, rat, plasma, po, 3 mg nalbuphine free base equivalents/kg, nalbuphine PABA carbamate in plasma after oral p-aminobenzoic acid carbamate prodrug, 3 mg nalbuphine equivs/kg, Mean) was 0.8 h, the AUC ([1]; male, Wistar, rat, plasma, po, 3 mg nalbuphine free base equivalents/kg, nalbuphine PABA carbamate in plasma after oral p-aminobenzoic acid carbamate prodrug, 3 mg nalbuphine equivs/kg, single animal, read-out: AUC) was 14 ng·h/mL and the Cmax ([1]; male, Wistar, rat, plasma, po, 3 mg nalbuphine free base equivalents/kg, nalbuphine PABA carbamate in plasma after oral p-aminobenzoic acid carbamate prodrug, 3 mg nalbuphine equivs/kg, single animal, read-out: Cmax) was 16 ng/mL. The Tmax ([1]; male, Wistar, rat, plasma, po, 3 mg nalbuphine free base equivalents/kg, nalbuphine PABA carbamate in plasma after oral p-aminobenzoic acid carbamate prodrug, 3 mg nalbuphine equivs/kg, single animal, read-out: Tmax) was 0.25 h, the AUC [1, 10] was 9.4 ng·h/mL and 11 ng·h/mL and the Cmax [1, 10] was 11 ng/mL and 9.2 ng/mL. For the same molecule, the t½ [1, 10] was 0.5 h and 0.8 h and 1.2 h.

For `CN1CC[C@@]23CCCC[C@@H]2[C@@H]1Cc1ccc(O)cc13` [dextrorphan], the “T>50%Cmax” value ([4]; dextrorphan in plasma after oral dextrorphan, 5 mg free base equivalents/kg, male cynomolgus monkeys, Mean) was 3.5 h, the Cmax [4, 11] was 3.0 ng/mL and 3.5 ng/mL and 5.5 ng/mL and the “T>50%Cmax” value [4, 11] was 3.7 h and 3.5 h and 4.5 h and 2.5 h and 3.3 h. The Tmax [4, 11] was 1.0 h, the AUC ([4]; dextrorphan in plasma after oral dextrorphan, 5 mg free base equivalents/kg, male cynomolgus monkeys, single animal (animal 12: extrapolation of AUC data 39%)) was 14* ng · h/mL and 19 ng · h/mL (2×) and 13 ng · h/mL and the AUC ([4]; male, cynomolgus monkey, plasma, po, 5 mg dextrorphan free base equivalents/kg, dextrorphan in plasma after oral dextrorphan, 5 mg free base equivalents/kg, male cynomolgus monkeys, Mean, read-out: AUC) was 17 ng·h/mL. For the same molecule, the Cmax ([4]; male, cynomolgus monkey, plasma, po, 5 mg dextrorphan free base equivalents/kg, dextrorphan in plasma after oral dextrorphan, 5 mg free base equivalents/kg, male cynomolgus monkeys, Mean, read-out: Cmax) was 3.9 ng/mL, the Tmax ([4]; male, cynomolgus monkey, plasma, po, 5 mg dextrorphan free base equivalents/kg, dextrorphan in plasma after oral dextrorphan, 5 mg free base equivalents/kg, male cynomolgus monkeys, Mean, read-out: Tmax) was 1.6 h and the half-life ([4]; male, cynomolgus monkey, plasma, po, 5 mg dextrorphan free base equivalents/kg, dextrorphan in plasma after oral dextrorphan, 5 mg free base equivalents/kg, male cynomolgus monkeys, Mean) was 2.1 h. For the same molecule, the Cmax ([4]; male, cynomolgus monkey, plasma, po, 5 mg dextrorphan free base equivalents/kg, dextrorphan in plasma after oral dextrorphan, 5 mg free base equivalents/kg, male cynomolgus monkeys, single animal, read-out: Cmax) was 4.3 ng/mL, the Tmax ([4]; male, cynomolgus monkey, plasma, po, 5 mg dextrorphan free base equivalents/kg, dextrorphan in plasma after oral dextrorphan, 5 mg free base equivalents/kg, male cynomolgus monkeys, single animal, read-out: Tmax) was 2 h and the half-life ([4]; male, cynomolgus monkey, plasma, po, 5 mg dextrorphan free base equivalents/kg, dextrorphan in plasma after oral dextrorphan, 5 mg free base equivalents/kg, male cynomolgus monkeys, single animal) was 2.3 h. The AUC ([4]; male, cynomolgus monkey, plasma, po, 5 mg dextrorphan free base equivalents/kg, read-out: AUC) was 20 ng·h/mL, the “T>50%Cmax” value ([5]; dextrorphan in plasma after oral dextrorphan, 5 mg free base equivalents/kg, female dogs, Mean) was 2.4 h and the AUC [5, 12] was 18.9 ng·h/mL and 13.4 ng·h/mL and 8.3 ng·h/mL and 10.7 ng·h/mL and 12.4 ng·h/mL. The Cmax [5, 12] was 4.2 ng/mL and 2.1 ng/mL and 3.8 ng/mL and 2.7 ng/mL, the “T>50%Cmax” value [5, 12] was 2.9 h (2×) and 2.4 h and 2.2 h and 1.6 h and the Tmax [5, 12] was 1.0 h. For the same molecule, the “T>50% Cmax of dextrorphan” value ([5]; dogs, oral) was 2.4 h, the AUC ([5]; female, beagle, dog, plasma, po, 5 mg dextrorphan free base equivalents/kg, dextrorphan in plasma after oral dextrorphan, 5 mg free base equivalents/kg, female dogs, Mean, read-out: AUC) was 12.7 ng·h/mL and the Cmax ([5]; female, beagle, dog, plasma, po, 5 mg dextrorphan free base equivalents/kg, dextrorphan in plasma after oral dextrorphan, 5 mg free base equivalents/kg, female dogs, Mean, read-out: Cmax) was 3.3 ng/mL. For the same molecule, the Tmax ([5]; female, beagle, dog, plasma, po, 5 mg dextrorphan free base equivalents/kg, dextrorphan in plasma after oral dextrorphan, 5 mg free base equivalents/kg, female dogs, Mean, read-out: Tmax) was 0.6 h, the Cmax ([5]; female, beagle, dog, plasma, po, 5 mg dextrorphan free base equivalents/kg, dextrorphan in plasma after oral dextrorphan, 5 mg free base equivalents/kg, female dogs, single animal, read-out: Cmax) was 3.6 ng/mL and the Tmax ([5]; female, beagle, dog, plasma, po, 5 mg dextrorphan free base equivalents/kg, dextrorphan in plasma after oral dextrorphan, 5 mg free base equivalents/kg, female dogs, single animal, read-out: Tmax) was 0.5 h. The half-life ([5]; female, beagle, dog, plasma, po, 5 mg free base equivalents/kg, dextrorphan in plasma after oral dextrorphan, 5 mg free base equivalents/kg, female dogs, Mean, read-out: t½ (converted)) was 3.1 h.
